Key:
cathepsin K = biological target: T1, cathepsin K (Homo sapiens, UniProt P43235); assay: Determination of cathepsin K proteolytic catalytic activity (fluorogenic peptide substrate); type: biochemical; settings: human recombinant enzyme
T1 construct: made in house; host or cells: not fixed: E coli, Pichia or Baculovirus systems named as options
T1 sequence (P43235 115-329): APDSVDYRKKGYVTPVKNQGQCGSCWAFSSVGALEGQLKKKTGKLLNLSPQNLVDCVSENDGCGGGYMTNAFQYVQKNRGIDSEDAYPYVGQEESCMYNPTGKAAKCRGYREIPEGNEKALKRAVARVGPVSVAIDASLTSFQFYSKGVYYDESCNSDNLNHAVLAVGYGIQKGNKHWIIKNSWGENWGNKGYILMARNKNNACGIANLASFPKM
Protocol: Convenient assays for cathepsin K are carried out using human recombinant enzyme, such as that described in PDB.
The recombinant cathepsin K can be expressed in a variety of commercially available expression systems including E coli, Pichia and Baculovirus systems.
The purified enzyme is activated by removal of the prosequence by conventional methods.
Standard assay conditions for the determination of kinetic constants used a fluorogenic peptide substrate, typically H-D-Ala-Leu-Lys-AMC, and were determined in either 100 mM Mes/Tris, pH 7.0 containing 1 mM EDTA and 10 mM 2-mercaptoethanol or 100 mMNa phosphate, imM EDTA, 0.1% PEG4000 pH 6.5 or 100 mM Na acetate, pH 5.5 containing 5 mM EDTA and 20 mM cysteine, in each case optionally with […] as stabiliser. The enzyme concentration used was 5 nM. The stock substrate solution was prepared at 10 mM in DMSO. Screens were carried out at a fixed substrate concentration of 60 μM and detailed kinetic studies with doubling dilutions of substrate from 250 μM. The total DMSO concentration in the assay was kept below 3%. All assays were conducted at ambient temperature. Product fluorescence (excitation at 390 nm, emission at 460 nm) was monitored with a Labsystems Fluoroskan Ascent fluorescent plate reader. Product progress curves were generated over 15 minutes following generation of AMC product.
(§1) Potential inhibitors are screened using the above assay with variable concentrations of test compound. Reactions were initiated by addition of enzyme to buffered solutions of substrate and inhibitor. Ki values were calculated according to equation 1
(§2) where v0 is the velocity of the reaction, V is the maximal velocity, S is the concentration of substrate with Michaelis constant of KM, and I is the concentration of inhibitor.

cathepsin S = biological target: T2, cathepsin S (Homo sapiens, UniProt P25774); assay: Cathepsin S Ki determination (boc-Val-Leu-Lys-AMC substrate); type: biochemical; settings: baculovirus-expressed human cathepsin S
T2 construct: made in house
T2 sequence (P25774 115-331): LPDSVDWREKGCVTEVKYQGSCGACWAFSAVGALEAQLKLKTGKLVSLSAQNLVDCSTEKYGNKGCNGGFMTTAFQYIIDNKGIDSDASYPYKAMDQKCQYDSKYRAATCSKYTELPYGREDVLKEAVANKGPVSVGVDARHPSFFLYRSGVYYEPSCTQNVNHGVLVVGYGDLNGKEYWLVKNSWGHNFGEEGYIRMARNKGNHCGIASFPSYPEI
Protocol: The assay uses baculovirus-expressed human cathepsin S and the boc-Val-Leu-Lys-AMC fluorescent substrate available from Bachem in a 384 well plate format, in which 7 test compounds can be tested in parallel with a positive control comprising a known cathepsin S inhibitor comparator.
280 μl/well of 12.5% DMSO are added to rows B-H of two columns of a 96 deep well polypropylene plate. 70 μl/well of substrate is added to row A. 2×250 μl/well of assay buffer (100 mM Na phosphate, 100 mM NaCl, pH 6.5) is added to row A, mixed, and double diluted down the plate to row H.
100 μl/well of assay buffer is added to columns 2-5 and 7-12 of 4 rows of a 96 well V bottom polypropylene plate. 200 μl/well of assay buffer is added to columns 1 and 6.
2 μl of each 10 mM test compound is added to a separate well on row A, columns 1-10. Add 90 μl assay buffer containing 1 mM DTT and 2 nM cathepsin S to each well of rows B-H and 180 μl to row A. Mix row A using a multichannel pipette and double dilute to row G. Mix row H and read in the fluorescent spectrophotometer.
The second test compound is added to column 6 of the top row, the third to column 1 of the second row etc. Add 1 μl of comparator to column 6 of the bottom row. Mix column 1 and double dilute to column 5. Mix column 6 and double dilute to column 10.
Using an 8-channel multistepping pipette set to 5×10 μl, distribute 10 μl/well of substrate to the 384 well assay plate. Distribute the first column of the substrate dilution plate to all columns of the assay plate starting at row A. The tip spacing of the multichannel pipette will correctly skip alternate rows. Distribute the second column to all columns starting at row B.
Using a 12-channel multistepping pipette set to 4×10 μl, distribute 10 μl/well of inhibitor to the 384 well assay plate. Distribute the first row of the inhibitor dilution plate to alternate rows of the assay plate starting at A1. The tip spacing of the multichannel pipette will correctly skip alternate columns. Similarly, distribute the second, third and fourth rows to alternate rows and columns starting at A2, B1 and B2 respectively.
Mix 20 ml assay buffer and 20 μl 1M DTT. Add sufficient cathepsin S to give 2 nM final concentration.
Using the a distributor such as a Multidrop 384, add 30 μl/well to all wells of the assay plate and read in fluorescent spectrophotomoter such as an Ascent.
Fluorescent readings, (excitation and emission wavelengths 390 nm and 460 nm respectively, set using bandpass filters) reflecting the extent of enzyme cleavage of the fluorescent substrate, […] the inhibitor, are linear rate fitted for each well.
Fitted rates for all wells for each inhibitor are fitted to the competitive inhibition equation using SigmaPlot 2000 to determine V, Km and Ki values.
as §1, §2

cathepsin L = cathepsin L (Homo sapiens, UniProt P07711); assay: Cathepsin L Ki determination (H-D-Val-Leu-Lys-AMC substrate); type: biochemical
cathepsin L, sequence (P07711 114-333): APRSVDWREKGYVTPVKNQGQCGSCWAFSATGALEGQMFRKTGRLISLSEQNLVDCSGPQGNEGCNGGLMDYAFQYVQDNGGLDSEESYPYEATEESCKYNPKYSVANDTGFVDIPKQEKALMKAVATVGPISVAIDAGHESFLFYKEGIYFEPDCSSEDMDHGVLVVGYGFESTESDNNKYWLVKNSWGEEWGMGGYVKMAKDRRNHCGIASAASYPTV
Protocol: The procedure above with the following amendments is used for the determination of Ki for cathepsin L.
The enzyme is commercially available human cathepsin L (for example Calbiochem). The substrate is H-D-Val-Leu-Lys-AMC available from Bahcem. The assay buffer is 100 mM sodium acetate 1 mM EDTA, pH5.5) The DMSO stock (10 mM in 100% DMSO) is diluted to 10% in assay buffer. Enzyme is prepared at 5 nM concentration in assay buffer plus 1 mM dithiothreitol just before use. 2 ul of 10 mM inhibitor made up in 100% DMSO is dispensed into row A. 10 ul of 50 uM substrate (=1/200 dilution of 10 mM stock in DMSO, diluted in assay buffer)
as §1, §2

[1] = reference markers for the permeability assay; cited from earlier work

SMILES | IC50 (cathepsin K) | IC50 (cathepsin S) | IC50 (cathepsin L) | % absorption in man [1]
CC(C)C[C@H](N[C@@H](c1ccc(-c2ccc(F)cc2)cc1)C(F)(F)F)C(=O)N1C[C@H](F)[C@H]2OCC(=O)[C@H]21 [Example 20, (3aS,6S,6aS)-6-Fluoro-4-{(S)-4-methyl-2-[(S)-2,2,2-trifluoro-1-(4′-fluoro-biphenyl-4-yl)-ethylamino]-pentanoyl}-tetrahydro-furo[3,2-b]pyrrol-3-one] | 180 nM | 37 µM | 30 µM | 
Cc1ccc(-c2ccc([C@H](N[C@@H](CC(C)C)C(=O)N3C[C@H](F)[C@H]4OCC(=O)[C@H]43)C(F)(F)F)cc2)cc1 [Example 33, (3aS,6S,6aS)-6-Fluoro-4-{(S)-4-methyl-2-[(S)-2,2,2-trifluoro-1-(4′-methyl-biphenyl-4-yl)-ethylamino]-pentanoyl}-tetrahydro-furo[3,2-b]pyrrol-3-one] | 190 nM | 20 µM | 20 µM | 
N[C@@H](Cc1ccccc1)C(=O)O [L-Phenylalanine] |  |  |  | 100%
OC[C@@H](O)[C@@H](O)[C@H](O)[C@H](O)CO [Mannitol] |  |  |  | 16%
CN(Cc1cnc2nc(N)nc(N)c2n1)c1ccc(C(=O)N[C@@H](CCC(=O)O)C(=O)O)cc1 [Methotrexate] |  |  |  | 20%

Second part, led by results:

IC50 (cathepsin K) | IC50 (cathepsin S) | IC50 (cathepsin L) | SMILES | % absorption in man [1]
29 nM | 36 µM | 100 µM | CC(C)C[C@H](N[C@@H](c1ccc(-c2ccc(S(C)(=O)=O)cc2)cc1)C(F)(F)F)C(=O)N1C[C@H](F)[C@H]2OCC(=O)[C@H]21 [Example 14, (3aS,6S,6aS)-6-Fluoro-4-[(S)-4-methyl-2-{(S)-2,2,2-trifluoro-1-(4′-methanesulfonyl-biphenyl-4-yl)-ethylamino]-pentanoyl}-tetrahydro-furo[3,2-b]pyrrol-3-one] | 
56 nM | 19 µM | 94 µM | CC(C)C[C@H](N[C@@H](c1ccc(-c2cccc(S(C)(=O)=O)c2)cc1)C(F)(F)F)C(=O)N1C[C@H](F)[C@H]2OCC(=O)[C@H]21 [Example 18, (3aS,6S,6aS)-6-Fluoro-4-{(S)-4-methyl-2-[(S)-2,2,2-trifluoro-1-(3′-methanesulfonyl-biphenyl-4-yl)-ethylamino]-pentanoyl}-tetrahydro-furo[3,2-b]pyrrol-3-one] | 
44 nM | 22 µM | 25 µM | CC(C)C[C@H](N[C@@H](c1ccc(-c2ccccc2F)cc1)C(F)(F)F)C(=O)N1C[C@H](F)[C@H]2OCC(=O)[C@H]21 [Example 26, (3aS,6S,6aS)-6-Fluoro-4-{(S)-4-methyl-2-[(S)-2,2,2-trifluoro-1-(2′-fluoro-biphenyl-4-yl)-ethylamino]-pentanoyl}-tetrahydro-furo[3,2-b]pyrrol-3-one] | 
51 nM | 10 µM | 5.5 µM | CSc1ccc(-c2ccc([C@H](N[C@@H](CC(C)C)C(=O)N3C[C@H](F)[C@H]4OCC(=O)[C@H]43)C(F)(F)F)cc2)cc1 [Example 28, (3aS,6S,6aS)-6-Fluoro-4-{(S)-4-methyl-2-[(S)-2,2,2-trifluoro-1-(4′-methylsulfanyl-biphenyl-4-yl)-ethylamino]-pentanoyl}-tetrahydro-furo[3,2-b]pyrrol-3-one] | 
18 nM | 27 µM | 180 µM | CC(C)C[C@H](N[C@@H](c1ccc(-c2ccc([S+](C)[O-])cc2)cc1)C(F)(F)F)C(=O)N1C[C@H](F)[C@H]2OCC(=O)[C@H]21 (stereo partly drawn) [Example 29, (3aS,6S,6aS)-6-Fluoro-4-{(S)-4-methyl-2-[(S)-2,2,2-trifluoro-1-(4′-methylsulfoxide-biphenyl-4-yl)-ethylamino]-pentanoyl}-tetrahydro-furo[3,2-b]pyrrol-3-one] | 
70 nM | 19 µM | 29 µM | COc1ccc(-c2ccc([C@H](N[C@@H](CC(C)C)C(=O)N3C[C@H](F)[C@H]4OCC(=O)[C@H]43)C(F)(F)F)cc2)cc1 [Example 31, (3aS,6S,6aS)-6-Fluoro-4-{(S)-4-methyl-2-[(S)-2,2,2-trifluoro-1-(4′-methoxy-biphenyl-4-yl)-ethylamino]-pentanoyl}-tetrahydro-furo[3,2-b]pyrrol-3-one] | 
< 5 nM | 188 µM | 139 µM | CC(C)C[C@H](N[C@@H](c1ccc(-c2csc(N3CCN(C)CC3)n2)cc1)C(F)(F)F)C(=O)N1C[C@H](F)[C@H]2OCC(=O)[C@H]21 [Example 58, (3aS,6S,6aS)-6-Fluoro-4-[(S)-4-methyl-2-((S)-2,2,2-trifluoro-1-{4-[2-(4-methyl-piperazin-1-yl)-thiazol-4-yl]-phenyl}-ethylamino)-pentanoyl]-tetrahydro-furo[3,2-b]pyrrol-3-one] | 

From patent publication US20090023747A1, “Cysteine Protease Inhibitors” (priority 2005, published 2009)
